Source: patent US8709381B2, “Compound containing a carbon or an oxygen isotope, preparation and use thereof, and composition comprising thereof” (Beijing Top Grade Medical Equipment Co., Ltd, priority 2010, dated 2014)

Columns and labels:
porphyrin synthesis = conditions: in vivo
From the text: Example 4 relates to a study of imaging of porphyrin synthesis in-vivo.
Porphyrin plays an important role in an organism. It is important for the study of physiological conditions, biochemical condition, and diseases to know the porphyrin synthesis in vivo. 5-ALA is a precursor of the porphyrin synthesis. After it is irradiated by photons of 50 MV with a dosage of 30 Gy (gray), a ^12C atom of the 5-ALA molecule is converted into an ^11C positron nuclide and a ^16O atom therein is converted into an ^15O positron nuclide.

[1] = fluorescence analysis of structure after photon irradiation; assay type: physicochemical; conditions: 3 mg irradiated by 50 MV photons, 30 Gy
Experimental: (§1) The details of the procedure of the present example are as follow: 3 mg of adriamycin is irradiated by 50 MV of photons with a dosage of 30 Gy (gray). […] A ^12C atom of the adriamycin molecule is converted into a ^11C positron nuclide and an ^16O atom therein is converted into a ^15O positron nuclide.

SD rats = experiment: distribution after tail vein injection of 11C/15O-labeled adriamycin; assay type: in vivo, rat; conditions: labeled with 11C and 15O
Experimental: as §1

| structure after the irradiation (fluorescence analysis) [1] | site of accumulation in vivo (SD rats) | Structure (SMILES) | main organ of porphyrin synthesis (porphyrin synthesis) |
| --- | --- | --- | --- |
|  |  | NCC(=O)CCC(=O)O [5-ALA] | liver is the main organ of porphyrin synthesis |
| no change in the structure | accumulates at the heart | COc1cccc2c1C(=O)c1c(O)c3c(c(O)c1C2=O)C[C@@](O)(C(=O)CO)C[C@@H]3O[C@H]1C[C@H](N)[C@H](O)[C@H](C)O1 [adriamycin] |  |
